Experimental data as given in PubChem BioAssay (NCI).
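All cell lines were grown in 96-well plates and treated with compound for 48 hours. The concentration for full growth arrest is given as TGI.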

Assays:
Experiment in all cases: growth of human tumour cells (NCI), 48 h
MDA-N = test system: MDA-N
NCI/ADR-RES ovarian = test system: NCI/ADR-RES ovarian
OVCAR-4 ovarian = test system: OVCAR-4 ovarian
DU-145 prostate = test system: DU-145 prostate
A549 NSCLC = test system: A549 NSCLC
HCC-2998 colon = test system: HCC-2998 colon
RPMI-8226 leukemia = test system: RPMI-8226 leukemia
COLO 205 colon = test system: COLO 205 colon
PC-3 prostate = test system: PC-3 prostate
HCT-116 colon = test system: HCT-116 colon
EKVX NSCLC = test system: EKVX NSCLC
U251 CNS = test system: U251 CNS
HOP-92 NSCLC = test system: HOP-92 NSCLC
HL-60(TB) leukemia = test system: HL-60(TB) leukemia
SR leukemia = test system: SR leukemia

SMILES	TGI (MDA-N) [µM]	TGI (NCI/ADR-RES ovarian) [µM]	TGI (OVCAR-4 ovarian) [µM]	TGI (DU-145 prostate) [µM]	TGI (A549 NSCLC) [µM]	TGI (HCC-2998 colon) [µM]	TGI (RPMI-8226 leukemia) [µM]	TGI (COLO 205 colon) [µM]	TGI (PC-3 prostate) [µM]	TGI (HCT-116 colon) [µM]	TGI (EKVX NSCLC) [µM]	TGI (U251 CNS) [µM]	TGI (HOP-92 NSCLC) [µM]	TGI (HL-60(TB) leukemia) [µM]	TGI (SR leukemia) [µM]
CCCCCCCCCCCCCCCCOCC(CC(F)(F)P(=O)(OCC)OCC)OC(C)=O (stereo unspecified)	31.6	32.4	29.3	28.8	24.7	22.6	> 100	32.5	26.7	17	44.9	13.7	23.1	–	–
C=CCC(N(C)C(=O)[C@H](Cc1ccccc1)NC(=O)OCc1ccccc1)P(=O)(Oc1ccccc1)Oc1ccccc1 (stereo partly specified)	–	–	–	–	> 100	> 100	> 100	> 100	–	> 100	> 100	> 100	> 100	> 100	> 100
Cc1ccc(NC2=CC(=O)C(NO)c3ccccc32)cc1 (stereo unspecified)	6.75	5.81	9.71	7.41	10.6	25.8	–	8.72	–	8.77	8.57	11.9	8.25	4.73	–
CCOC(=O)/C=C/n1c2ccccc2c(=O)c2ccccc21	–	–	> 100	–	> 100	> 100	> 100	> 100	–	> 100	> 100	> 100	–	> 100	> 100
CC[C@]1(Cc2ccc(OC)c(OC)c2)C=[N+]([O-])O[C@H](OC2CCCC2(c2ccccc2)c2ccccc2)[C@@H]1OC(C)=O (stereo partly specified)	–	14.8	25.5	13.1	18.8	7.71	–	12	18.4	6.16	25.3	> 62	54.7	18.8	> 100
CC(=O)OCC1OC(OC2CC3C(C)(C)C(OC(C)=O)CC[C@]3(C)C3CCC45CC4(CCC5[C@@H](C)C[C@H](O)C(O)C(C)(C)O)[C@]23C)C(O)C(O)C1O (stereo partly specified)	> 10	> 10	> 10	> 10	> 10	> 10	> 10	> 10	> 10	> 10	> 10	> 10	> 10	> 10	–
COC(=O)CC1NC(=O)[C@@H]1C(C)O (stereo partly specified)	–	–	> 100	–	> 100	> 100	> 100	> 100	–	> 100	> 100	> 100	–	> 100	> 100
CN1c2ccccc2N(C(=O)c2ccc(Cl)cc2)C(CC(=O)O)c2cccn21 (stereo unspecified)	–	–	> 100	–	> 100	> 100	> 100	> 100	–	–	> 100	–	> 100	> 100	–
O=C(NCCNCCCNC(=O)c1cc(-c2ccccc2)nc2ccccc12)c1cccc(O)c1O	–	> 100	–	> 100	> 100	17.4	15.3	22.4	> 100	28.5	> 100	17.6	62.9	> 100	–
CCC12CCCN(Cc3ccccc3)C1c1c(n(C)c3ccccc13)C(C(=O)OC)C2 (stereo unspecified)	–	–	–	–	> 239	> 239	> 239	> 239	–	> 239	> 239	> 239	> 239	> 239	> 239
N#Cc1c(-c2ccc([N+](=O)[O-])cc2)c(C#N)c(=O)n(NS(=O)(=O)c2ccccc2)c1-c1ccccc1	–	> 100	> 100	–	> 100	> 100	> 100	> 100	> 100	> 100	> 100	> 100	> 100	> 100	–
COc1cc2c(cc1OCCCCN1C(=O)c3cccc4cccc(c34)C1=O)N=C[C@@H]1CCCN1C2=O	–	28.4	18.3	14.3	> 53.4	20.5	27.4	8.21	> 70.3	14	44.6	> 33.9	> 45.8	–	> 100
CCOP(=O)(OCC)C(C)(CC)N/C(=N/C(NC(C)=O)(C(F)(F)F)C(F)(F)F)NC1=NC(C(F)(F)F)(C(F)(F)F)N=C(C(F)(F)F)O1 (stereo unspecified)	> 100	47.4	84.2	> 100	> 100	> 100	73.7	29.8	77.6	> 100	> 100	> 100	63.9	45.8	–
N#C/C(c1nc2ccccc2[nH]1)=c1\s/c(=C/c2ccc(Cl)cc2)c(=O)n1-c1ccccc1	–	–	> 100	–	> 100	> 100	> 100	> 100	–	> 100	> 100	> 100	> 100	> 100	> 100
CC1CN(c2ccc(Cl)cc2)CC(C)OC(=O)O1 (stereo unspecified)	–	–	> 100	–	> 100	> 100	> 100	> 100	–	–	> 100	> 100	> 100	> 100	> 100
Nc1nc(SCc2ccc([N+](=O)[O-])cc2)nc2c1ncn2C1OC(CO)C(O)C1O (stereo unspecified)	–	–	> 100	–	> 100	> 100	> 100	> 100	–	> 100	> 100	> 100	–	> 100	> 100
CC(C)CC(NC(=O)OC(C)(C)C)C(=O)Nc1ccc(Nc2nc(F)nc(-c3c4ccccc4c4n3CCS4)n2)cc1 (stereo unspecified)	–	–	–	–	> 100	35	58.6	33.3	–	46	37.8	33.3	34.4	46.5	34.7
N#CC(=C1CCN(CCCC(=O)c2ccc(F)cc2)CC1)c1ccccc1	–	> 100	> 100	> 100	> 100	> 100	> 100	> 100	> 100	> 100	> 100	> 100	> 100	> 100	> 100
